# Laboratory results reported in PubChem BioAssay AID602121 (Johns Hopkins Ion Channel Center, 2011).
# Activity calls are given as the source filed them.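 How the source made its calls: active means opens the KCNQ1 potassium channel at some tested dose and gives a fittable dose response curve; inactive means the rest.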
# Molecular target: Potassium voltage-gated channel subfamily KQT member 1 (Homo sapiens) (UniProt P51787)
# Experiment: human KCNQ1 channel activators, SAR follow-up, automated patch clamp, CHO cells, set 2 (AID 602121)
# Details: at 30 µM (top of the series)
# Chain of Potassium voltage-gated channel subfamily KQT member 1 (Homo sapiens) (P51787 whole entry, looked up): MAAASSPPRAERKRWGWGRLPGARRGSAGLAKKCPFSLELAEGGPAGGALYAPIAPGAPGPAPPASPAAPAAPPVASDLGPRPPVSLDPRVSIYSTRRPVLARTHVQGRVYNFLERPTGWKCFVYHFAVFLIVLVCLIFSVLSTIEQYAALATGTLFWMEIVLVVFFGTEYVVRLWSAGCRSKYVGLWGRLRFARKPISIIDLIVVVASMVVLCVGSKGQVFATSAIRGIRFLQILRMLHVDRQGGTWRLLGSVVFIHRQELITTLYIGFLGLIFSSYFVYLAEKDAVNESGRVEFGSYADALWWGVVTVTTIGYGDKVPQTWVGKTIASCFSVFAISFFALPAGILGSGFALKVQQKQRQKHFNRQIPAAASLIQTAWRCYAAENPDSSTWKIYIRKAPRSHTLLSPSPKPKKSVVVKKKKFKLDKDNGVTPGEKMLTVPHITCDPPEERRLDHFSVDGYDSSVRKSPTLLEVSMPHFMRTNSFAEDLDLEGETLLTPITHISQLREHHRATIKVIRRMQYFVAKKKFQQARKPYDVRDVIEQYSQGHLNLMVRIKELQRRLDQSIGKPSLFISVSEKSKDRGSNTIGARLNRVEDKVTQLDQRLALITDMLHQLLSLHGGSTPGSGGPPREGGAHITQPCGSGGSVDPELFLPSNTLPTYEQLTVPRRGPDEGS
row,current activation,Structure (SMILES)
1,inactive,CCc1cccc(NC(=O)[C@H]2CCCCN2S(=O)(=O)c2ccc(C)cc2)n1
2,inactive,Cc1ccc(S(=O)(=O)N2CCCC[C@@H]2C(=O)Nc2ccc(C)c(Br)c2)cc1
3,inactive,Cc1ccc(S(=O)(=O)N2CCCC[C@@H]2C(=O)Nc2ccccc2)cc1
4,inactive,COc1cccc(NC(=O)[C@H]2CCCCN2S(=O)(=O)c2ccc(C)cc2)c1
5,inactive,COC(=O)c1cccc(NC(=O)[C@H]2CCCCN2S(=O)(=O)c2ccc(C)cc2)c1
6,inactive,Cc1ccc(S(=O)(=O)N2CCCC[C@@H]2C(=O)Nc2cccc([N+](=O)[O-])c2)cc1
7,inactive,Cc1ccc(S(=O)(=O)N2CCCC[C@@H]2C(=O)Nc2ccncc2)cc1
8,inactive,Cc1ccc(S(=O)(=O)N2CCCC[C@@H]2C(=O)Nc2cccc(Cl)n2)cc1

# Same assay, conditions: automated patch clamp current
row,EC50 [nM],Structure (SMILES)
1,3350,Cc1ccc(S(=O)(=O)N2CCCC[C@@H]2C(=O)Nc2ccc(F)c(C)c2)cc1
2,2250,Cc1ccc(S(=O)(=O)N2CCCC[C@@H]2C(=O)Nc2ccc(C)c(C)c2)cc1
3,778,COc1ccc(-c2csc(NC(=O)[C@H]3CCCCN3S(=O)(=O)c3ccc4c(c3)OCO4)n2)cc1
4,3240,Cc1ccc(S(=O)(=O)N2CCCC[C@@H]2C(=O)Nc2cccc(C(F)(F)F)c2)cc1
